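Dose response: 5 concentrations. Exposure: 48 h. Format: 96-well plates. Endpoint: linear interpolation; highest concentration if not reached. TGI denotes the concentration required for complete inhibition of growth.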
How the values were obtained:
Experiment in all cases: growth of human tumour cells (NCI), 48 h
A498 renal = test system: A498 renal
ACHN renal = test system: ACHN renal
BT-549 breast = test system: BT-549 breast
CCRF-CEM leukemia = test system: CCRF-CEM leukemia
HCT-116 colon = test system: HCT-116 colon
MDA-N = test system: MDA-N
NCI-H522 lung = test system: NCI-H522 lung
NCI/ADR-RES ovarian = test system: NCI/ADR-RES ovarian
PC-3 prostate = test system: PC-3 prostate
SNB-19 CNS = test system: SNB-19 CNS
U251 CNS = test system: U251 CNS
UACC-62 melanoma = test system: UACC-62 melanoma

SMILES	TGI (A498 renal) [µM]	TGI (ACHN renal) [µM]	TGI (BT-549 breast) [µM]	TGI (CCRF-CEM leukemia) [µM]	TGI (HCT-116 colon) [µM]	TGI (MDA-N) [µM]	TGI (NCI-H522 lung) [µM]	TGI (NCI/ADR-RES ovarian) [µM]	TGI (PC-3 prostate) [µM]	TGI (SNB-19 CNS) [µM]	TGI (U251 CNS) [µM]	TGI (UACC-62 melanoma) [µM]
O=C(Nc1ccc(Cl)cc1Cl)C1C(=O)OC2(CCCCC2)OC1=O	31.5	33.9	26.7	33.2	23.3	61.2	52.5	26.4	17.4	> 100	54.1	24.4
O=C1C(Cl)=CC2(C=C1Cl)CCN=c1c(O)c3c(c(O)c12)=NC=N3	> 100	> 100	75.2	> 100	67.5	33.6	51.8	> 100	> 100	> 100	71.9	34.7
